The record followed here is PMC5640650, “NatD promotes lung cancer progression by preventing histone H4 serine phosphorylation to activate Slug expression” (Nature Communications, 2017).

Holding throughout (assay type): cell-based, human
The subject of data set [1] is histone H4. Description: Western blot of histone H4 modifications, H1299 cells. The conditions noted are these: total lysates, vs Scr. An excerpt:
Fig. 2 NatD is required for lung cancer cell migration and invasion in vitro. a Quantitative real-time PCR analysis of NatD mRNA levels normalized to GAPDH in scrambled control cells (Scr) and NatD-KD1 and NatD-KD2 cells. Results are shown as mean ± s.d. from three independent experiments. Two-tailed Student’s t-test was used. **P < 0.01 compared to Scr control. b Western blot analysis of NatD and Nt-ac-H4 protein levels in scrambled, NatD-KD1, and NatD-KD2 cells. GAPDH and histone H4 served as loading controls. Blots are representative of three independent experiments. c Representative images from wound healing assay of scrambled, NatD-KD1, and NatD-KD2 cells from three independent experiments (left panels). Wound healing assay results are quantified in the histogram (right panel). Results are shown as mean ± s.d. from three independent experiments. Two-tailed Student’s t-test was used. **P < 0.01 compared to Scr control. d Representative images of the migration of scrambled, NatD-KD1, and NatD-KD2 cells in a time-lapse cell tracker migration assay from three independent experiments. Representative images of the migration (e) and invasion (f) of scramble, NatD-KD1, and NatD-KD2 cells with transwell assay from three independent experiments (top panel). Cell counts for the corresponding assays of at least four random microscope fields (×100 magnification). Cell migration and invasion are expressed as a percentage of control (bottom panel). Results are shown as mean ± s.d. from three independent experiments. Two-tailed Student’s t-test was used. **P < 0.01 compared to Scr control
Fig. 6 Nt-acetylation of histone H4 antagonizes phosphorylation of histone H4 serine 1 to regulate Slug expression. a Western blot analysis of indicated histone H4 modifications in Scr and NatD-KD H1299 cells. Histone H4 served as a loading control. b ChIP analysis of the enrichment of indicated histone H4 modifications on the Slug promoter in Scr and NatD-KD H1299 cells. IgG served as a negative control. Results are shown as mean ± s.d. from three independent experiments; two-tailed Student’s t-test, *P < 0.05, **P < 0.01 compared with the Scr control. c ChIP analysis of the enrichment of H3K4me3 and H3K27me3 on the Slug promoter in Scr and NatD-KD H1299 cells. IgG served as a negative control. Results are shown as mean ± s.d. from three independent experiments; two-tailed Student’s t-test, **P < 0.01 compared with the Scr control. d Western blot analysis of indicated proteins from H1299 cells overexpressing NatDΔ or wild-type NatD. Histone H4 served as a loading control. e ChIP analysis of the enrichment of Nt-ac-H4 and H4S1ph on Slug promoter in H1299 cells overexpressing NatDΔ or wild-type NatD. IgG served as a negative control. Results are shown as mean ± s.d. from three independent experiments; two-tailed Student’s t-test, *P < 0.05, **P < 0.01 compared with the wild-type control
Cellular proteins were extracted by RIPA lysis buffer at high salt concentration (420 mM NaCl), and western blot analysis was performed in accordance with standard protocols. Scans of enhanced chemiluminescence (ECL) films showing uncropped blots are presented in Supplementary Fig. 10. […]

Data set [2] has as its system H1299 cells. Briefly: Cell growth (CCK-8), H1299 cells. The settings on record: vs Scr. As to the method: The in vitro viability of H1299 cells was assessed using the Cell Counting Kit-8 (CCK-8, Dojindo, Japan) according to the manufacturer’s protocol. Flow cytometric analysis of apoptosis was assessed by Annexin V and PI staining using the Annexin V-APC Apoptosis Detection Kit (KeyGEN BioTECH, China) according to the manufacturer’s guide. For cell cycle analysis, cells were harvested and fixed at 4 °C overnight with 70% ethanol. Cells were washed twice with PBS, and their DNA was stained using a Cell Cycle Detection Kit (KeyGEN BioTECH, China). The samples were analyzed by flow cytometry (Becton Dickinson, NJ, USA), and results were analyzed with FlowJo software according to the manufacturer’s instructions. For the wound healing assay, cells were plated to confluence in a 6-well plate, and the cell monolayer was scratched using a pipette tip. Representative photos were taken using a digital camera mounted on an inverted microscope (Olympus) at indicated times. Live cell imaging was performed using the HoloMonitor M4 time-lapse cytometer (Phase Holographic Imaging, Sweden). […]
Supplementary Figure 1. […] (b and c) Representative images from three independent experiments of apoptosis (b) and cell cycle analysis (c) of Scr and NatD-KD H1299 cells analyzed by flow cytometry. […]

For data set [3], the system named is H1299 cells. Briefly: Wound healing assay, H1299 cells. The settings on record: vs Scr. An excerpt: (§1) Fig. 2 NatD is required for lung cancer cell migration and invasion in vitro. a Quantitative real-time PCR analysis of NatD mRNA levels normalized to GAPDH in scrambled control cells (Scr) and NatD-KD1 and NatD-KD2 cells. Results are shown as mean ± s.d. from three independent experiments. Two-tailed Student’s t-test was used. **P < 0.01 compared to Scr control. b Western blot analysis of NatD and Nt-ac-H4 protein levels in scrambled, NatD-KD1, and NatD-KD2 cells. GAPDH and histone H4 served as loading controls. Blots are representative of three independent experiments. c Representative images from wound healing assay of scrambled, NatD-KD1, and NatD-KD2 cells from three independent experiments (left panels). Wound healing assay results are quantified in the histogram (right panel). […] Cell migration and invasion are expressed as a percentage of control (bottom panel). […]
(§2) The in vitro viability of H1299 cells was assessed using the Cell Counting Kit-8 (CCK-8, Dojindo, Japan) according to the manufacturer’s protocol. Flow cytometric analysis of apoptosis was assessed by Annexin V and PI staining using the Annexin V-APC Apoptosis Detection Kit (KeyGEN BioTECH, China) according to the manufacturer’s guide. […] The samples were analyzed by flow cytometry (Becton Dickinson, NJ, USA), and results were analyzed with FlowJo software according to the manufacturer’s instructions. […]

Data set [4] concerns H1299 cells. Description: Time-lapse cell-tracking, H1299 cells. The conditions noted are these: HoloMonitor M4, vs Scr.
Description: as §1, §2

“NatD-KD1: Human NatD shRNA KD1: 5′-GATGAAGAAGGTTATGTTA-3′, lentiviral (shRNA, lentiviral)”: the “level of Nt-ac-H4” value in data set [1] is on record as “significantly reduced”. Moreover, in data set [2], the cell growth rate entry is given as “grew at a similar rate”. For the same substance, the “migration in wound healing assay” value in data set [3] is on record as “migrated significantly more slowly”. In addition, in data set [4], the random motility entry is listed as “lower random motility”.

In the case of “NatD-KD2: Human NatD shRNA KD2: 5′-GGTTGAATGTCTCCATTGA-3′, lentiviral (shRNA lentiviral)”, in data set [1], the “level of H4R3me2a” value is “slightly increased”, the “level of H4R3me2s” value is “slightly decreased”, the “level of H4S1ph” value was “significantly increased” and the “level of Nt-ac-H4” value is “significantly reduced”. In data set [1], the “levels of H4K5ac, H4K8ac, or H4K12ac” value is reported as “No significant change”. Also, the “level of Nt-ac-H4” value in data set [1] (listed as NatD knockdown) is on record as “greatly decreased”. For the same substance, the cell growth rate entry in data set [2] is “grew at a similar rate”. The “migration in wound healing assay” value in data set [3] is reported as “migrated significantly more slowly”. Besides, the random motility entry in data set [4] is on record as “lower random motility”.
